Reference: PMC9851200, “Multiparameter phenotypic screening for endogenous TFEB and TFE3 translocation identifies novel chemical series modulating lysosome function” (Autophagy, 2022)

How the values were obtained:
Assay type in all cases: binding
[1] = biological target: T1, kinases (KINOMEscan panel) (Homo sapiens, UniProt Q13976); settings: kinase PRKG1; NEW KINOMEscan
T1 sequence (Q13976 1-671): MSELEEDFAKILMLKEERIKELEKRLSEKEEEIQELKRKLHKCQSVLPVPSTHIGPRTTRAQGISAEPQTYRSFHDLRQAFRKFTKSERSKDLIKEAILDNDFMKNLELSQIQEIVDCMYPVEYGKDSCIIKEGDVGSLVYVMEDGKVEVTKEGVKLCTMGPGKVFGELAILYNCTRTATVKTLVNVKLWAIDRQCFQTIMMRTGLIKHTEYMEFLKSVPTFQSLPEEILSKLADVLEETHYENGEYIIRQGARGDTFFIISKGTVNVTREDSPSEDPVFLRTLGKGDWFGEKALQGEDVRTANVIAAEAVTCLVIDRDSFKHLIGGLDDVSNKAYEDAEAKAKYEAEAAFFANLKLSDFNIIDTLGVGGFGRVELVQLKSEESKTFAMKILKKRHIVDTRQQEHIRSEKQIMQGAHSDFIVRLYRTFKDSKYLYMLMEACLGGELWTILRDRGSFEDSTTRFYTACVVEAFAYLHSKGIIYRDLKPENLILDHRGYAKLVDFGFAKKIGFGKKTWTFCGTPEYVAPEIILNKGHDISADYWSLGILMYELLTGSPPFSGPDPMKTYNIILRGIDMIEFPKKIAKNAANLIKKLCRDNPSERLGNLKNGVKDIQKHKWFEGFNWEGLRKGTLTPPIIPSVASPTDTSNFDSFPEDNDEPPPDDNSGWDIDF

[2] = biological target: kinases (KINOMEscan panel) (Homo sapiens, UniProt P14616); settings: INSRR; NEW KINOMEscan
[3] = biological target: T2, kinases (KINOMEscan panel) (Homo sapiens, UniProt Q9BXA7); settings: kinase TSSK1B; NEW KINOMEscan
T2 sequence (Q9BXA7 1-367): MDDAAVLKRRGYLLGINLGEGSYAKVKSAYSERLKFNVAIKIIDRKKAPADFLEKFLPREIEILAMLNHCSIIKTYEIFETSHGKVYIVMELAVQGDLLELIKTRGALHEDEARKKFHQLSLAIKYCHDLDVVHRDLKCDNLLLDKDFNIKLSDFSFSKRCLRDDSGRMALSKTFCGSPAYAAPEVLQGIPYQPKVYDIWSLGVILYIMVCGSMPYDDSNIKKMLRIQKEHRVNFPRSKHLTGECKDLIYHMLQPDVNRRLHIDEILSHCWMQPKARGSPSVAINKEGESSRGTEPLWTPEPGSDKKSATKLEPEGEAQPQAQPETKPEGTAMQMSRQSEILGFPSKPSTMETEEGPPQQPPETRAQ

[4] = biological target: T3, kinases (KINOMEscan panel) (Homo sapiens, UniProt Q6ZN16); settings: NEW KINOMEscan
T3 sequence (Q6ZN16 1-1313): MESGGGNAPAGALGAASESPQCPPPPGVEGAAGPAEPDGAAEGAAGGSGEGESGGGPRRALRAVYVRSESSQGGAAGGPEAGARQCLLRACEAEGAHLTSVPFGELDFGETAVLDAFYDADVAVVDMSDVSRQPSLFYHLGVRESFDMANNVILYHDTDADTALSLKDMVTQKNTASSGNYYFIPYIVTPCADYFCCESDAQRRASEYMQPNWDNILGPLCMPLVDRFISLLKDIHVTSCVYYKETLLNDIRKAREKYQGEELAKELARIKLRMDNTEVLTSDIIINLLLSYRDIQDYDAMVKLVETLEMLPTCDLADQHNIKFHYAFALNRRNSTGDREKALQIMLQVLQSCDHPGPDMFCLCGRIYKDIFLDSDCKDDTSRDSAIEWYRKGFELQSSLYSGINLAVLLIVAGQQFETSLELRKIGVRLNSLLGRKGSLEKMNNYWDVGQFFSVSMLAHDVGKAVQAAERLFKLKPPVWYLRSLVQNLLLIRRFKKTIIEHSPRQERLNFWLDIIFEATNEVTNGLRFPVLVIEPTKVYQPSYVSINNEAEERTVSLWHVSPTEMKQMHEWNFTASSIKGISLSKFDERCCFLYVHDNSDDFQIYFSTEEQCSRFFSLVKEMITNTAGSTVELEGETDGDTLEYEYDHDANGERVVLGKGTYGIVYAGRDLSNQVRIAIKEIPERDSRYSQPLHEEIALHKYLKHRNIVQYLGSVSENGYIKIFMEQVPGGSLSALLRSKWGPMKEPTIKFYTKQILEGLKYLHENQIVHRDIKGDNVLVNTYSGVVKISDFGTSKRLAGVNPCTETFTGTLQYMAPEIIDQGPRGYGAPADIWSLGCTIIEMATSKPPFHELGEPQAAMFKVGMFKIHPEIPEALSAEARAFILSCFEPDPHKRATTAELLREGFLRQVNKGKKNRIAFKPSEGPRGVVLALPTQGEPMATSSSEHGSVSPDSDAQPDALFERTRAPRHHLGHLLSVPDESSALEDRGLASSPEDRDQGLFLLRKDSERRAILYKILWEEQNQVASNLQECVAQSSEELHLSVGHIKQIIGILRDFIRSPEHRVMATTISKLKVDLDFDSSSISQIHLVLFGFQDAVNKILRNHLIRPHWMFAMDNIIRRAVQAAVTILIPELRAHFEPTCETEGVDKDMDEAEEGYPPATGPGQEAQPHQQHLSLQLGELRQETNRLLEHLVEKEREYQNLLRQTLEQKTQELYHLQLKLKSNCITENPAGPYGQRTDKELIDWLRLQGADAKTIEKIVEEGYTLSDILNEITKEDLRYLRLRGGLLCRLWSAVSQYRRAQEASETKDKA

Chain of kinases (KINOMEscan panel) (Homo sapiens, UniProt P14616) (P14616 27-1297): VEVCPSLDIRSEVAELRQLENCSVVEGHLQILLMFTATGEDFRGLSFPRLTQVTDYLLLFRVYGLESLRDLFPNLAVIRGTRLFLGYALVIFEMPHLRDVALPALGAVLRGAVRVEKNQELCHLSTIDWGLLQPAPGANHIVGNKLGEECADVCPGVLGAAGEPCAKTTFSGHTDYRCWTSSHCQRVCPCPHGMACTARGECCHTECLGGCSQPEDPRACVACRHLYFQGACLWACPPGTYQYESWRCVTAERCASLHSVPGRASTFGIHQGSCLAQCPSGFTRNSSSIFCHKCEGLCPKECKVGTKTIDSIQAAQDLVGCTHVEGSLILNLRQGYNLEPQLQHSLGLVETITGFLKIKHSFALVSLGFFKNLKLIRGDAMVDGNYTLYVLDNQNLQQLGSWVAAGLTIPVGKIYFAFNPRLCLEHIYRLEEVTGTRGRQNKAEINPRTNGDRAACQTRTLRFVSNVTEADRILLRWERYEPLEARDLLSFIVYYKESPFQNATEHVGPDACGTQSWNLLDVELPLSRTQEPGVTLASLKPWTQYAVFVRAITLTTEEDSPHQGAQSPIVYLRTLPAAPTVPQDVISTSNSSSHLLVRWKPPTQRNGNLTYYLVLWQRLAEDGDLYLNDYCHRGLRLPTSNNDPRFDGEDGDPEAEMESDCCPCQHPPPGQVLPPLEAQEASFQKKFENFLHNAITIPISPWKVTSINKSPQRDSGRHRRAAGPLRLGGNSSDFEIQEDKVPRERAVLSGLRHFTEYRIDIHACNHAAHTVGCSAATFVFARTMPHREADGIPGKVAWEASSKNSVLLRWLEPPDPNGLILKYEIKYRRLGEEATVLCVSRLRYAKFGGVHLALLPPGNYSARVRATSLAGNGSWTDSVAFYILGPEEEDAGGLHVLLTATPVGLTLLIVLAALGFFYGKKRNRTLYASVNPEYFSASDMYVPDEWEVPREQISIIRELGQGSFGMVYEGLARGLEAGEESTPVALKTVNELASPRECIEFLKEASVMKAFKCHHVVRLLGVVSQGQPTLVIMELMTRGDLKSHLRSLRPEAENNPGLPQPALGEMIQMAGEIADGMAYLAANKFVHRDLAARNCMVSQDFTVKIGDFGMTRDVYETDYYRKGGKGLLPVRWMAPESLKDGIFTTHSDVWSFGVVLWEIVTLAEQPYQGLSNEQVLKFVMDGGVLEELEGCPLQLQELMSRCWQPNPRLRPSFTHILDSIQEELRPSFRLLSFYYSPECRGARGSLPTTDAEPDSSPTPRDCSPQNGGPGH

Question: How did the “KINOMEscan PRKG1” value [1] turn out when `Cc1cccc(-c2nc(Nc3ccc4nn(C)cc4c3)c3ccccc3n2)n1` [NK167] was run?
Answer: The value was 0.

Question: What about the “KINOMEscan INSRR” value [2] of the same compound?
Answer: The value was 0.

Question: What about the “KINOMEscan TSSK1B” value [3] of the same compound?
Answer: The value was 15.

Question: And the “KINOMEscan MAP3K15” value [4]?
Answer: Its value is 21.

Question: Which “KINOMEscan PRKG1” value [1] does the source give for `Cc1cccc(-c2nc(N(C)c3ccc4ncsc4c3)c3ccccc3n2)n1` [NK-161] here?
Answer: The value was 10.

Question: And the “KINOMEscan INSRR” value [2]?
Answer: The value was 0.

Question: What about the “KINOMEscan TSSK1B” value [3] of the same compound?
Answer: The value was 11.

Question: And the “KINOMEscan MAP3K15” value [4]?
Answer: Its value is 21.
